# Reference: publication PMC10743086, “Immunofluorescence-Based Assay for High-Throughput Analysis of Multidrug Resistance Markers in Non-Small Cell Lung Carcinoma Patient-Derived Cells” (Diagnostics, 2023)
# Key:
# Format in all cases: cell-based, human
# MRC-5 cells = assay: Cytotoxicity by immunofluorescence cell scoring (cell counts), normal fibroblasts; details: Homo sapiens, MRC5, 24 h, 24 h treatment
# Protocol: (§1) Vinorelbine and pemetrexed were purchased from Selleckchem (Houston, TX, USA). Carboplatin, cisplatin, docetaxel, etoposide, gemcitabine, gefitinib, and paclitaxel were purchased from Sigma-Aldrich Chemie GmbH (Taufkirchen, Germany). The cisplatin, carboplatin, and gemcitabine were dissolved in sterile water, while the etoposide, docetaxel, vinorelbine, paclitaxel, gefitinib, and pemetrexed were dissolved in DMSO and stored at −20 °C. Before treatment, all the stock solutions were freshly diluted in sterile water.
# (§2) The compounds were administered 48 h after seeding. The treatment lasted 24 h.
# (§3) The immunofluorescence assay for the quantification of MDR markers was optimized to distinguish cancer cells from stromal cells using a cytokeratin 8/18 (CK8/18) antibody cocktail. The cells were fixed with 4% paraformaldehyde for 20 min at RT and washed three times with PBS using the Wellwash Versa microplate washer (Thermo Fisher Scientific, Waltham, MA, USA). The cells were then blocked with 2% bovine serum albumin (BSA) in PBS for 1 h at RT. […] Co-immunostaining with antibodies against MDR markers was performed to detect the presence of ABCB1, ABCC1, and ABCG2 in both the cancer and stromal cells. […] The secondary antibodies were incubated with the cells at RT for 2 h in the dark. […] Finally, the cells were washed three times with PBS and stored at 4 °C in the dark before imaging.
# (§4) The fluorescently labeled cells were imaged using the ImageXpress Pico Automated Cell Imaging System (Molecular Devices, San Jose, CA, USA) with a 4x objective after determining the appropriate exposure time for each illumination filter. Analysis of the obtained images was performed using CellReporterXpress software v. 2.8.2.669 (Molecular Devices). The cytotoxicity of the compounds was determined using the Cell Scoring Analysis Protocol. […] Expression of MDR markers was determined using the Multi-Wavelength Cell Scoring Analysis Protocol.
# [1] = tested on: ABCC1 expression in non-cancer cells (CK8/18-); assay: Immunofluorescence assay of ABCC1 expression in patient-derived NSCLC cultures, non-cancer cells; details: sample TR58, chemotherapeutics, 7 days
# Protocol: (§5) Tissue samples were collected during surgery, and the NSCLC diagnosis, histological grade, stage, necrosis, and lymph node invasion status were determined by histopathological analysis. […] The surgical specimens were placed in a sterile tube containing antibiotic-antimycotic solution (Sigma-Aldrich Chemie GmbH, Taufkirchen, Germany) and immediately transported to the research laboratory for further processing.
# (§6) Upon arrival, the tissue was manually chopped with a surgical blade in a Petri dish under sterile conditions. The samples were cut into 3–5 mm pieces and further dissociated using the Tumor Dissociation Kit (Miltenyi Biotec, Bergisch Gladbach, Germany). The Tumor Dissociation Kit was used to dissociate the cells from the tumor tissue according to the manufacturer’s instructions. The samples were incubated in a 37 °C orbital shaker (KS 4000 ic control, IKA, Königswinter, Germany) at 300 rpm for 90 min. After incubation, the dissociated tissue was placed in DMEM/Ham’s F12 (1:3 ratio) growth medium supplemented with 5% fetal bovine serum (Corning, NY, USA), antibiotic-antimycotic solution, 4 µg/mL hydrocortisone (Sigma-Aldrich Chemie GmbH, Taufkirchen, Germany), 1 µg/mL insulin (Sigma-Aldrich Chemie GmbH, Taufkirchen, Germany), 10 ng/mL epidermal growth factor (BioLegend, San Diego, CA, USA), and 24 µg/mL adenine (Sigma-Aldrich Chemie GmbH, Taufkirchen, Germany). The DMEM and Ham’s F12 growth media were purchased from Sigma-Aldrich Chemie GmbH (Taufkirchen, Germany).
# (§7) The dissociated tissue was cultured in T-25 cell culture flasks until cell attachment was observed before the medium was replaced. If no cell attachment was achieved within 7 days, the sample was discarded. Successful patient-derived cultures were maintained at 37 °C in a humidified atmosphere with 5% CO2 and grown to confluence before undergoing further experiments. […] Partial trypsinization was performed by detaching the fibroblast-like cells with 1 mL of 0.05% trypsin for 1 min at 37 °C, followed by 2 min at room temperature (RT).
# as §1
# (§8) The primary cells were seeded in black, clear bottom 384-well cell culture microplates (Thermo Fisher Scientific, Waltham, MA, USA) in 50 µL of cell growth medium at a density of 1000 cells per well. The compounds were administered 72 h after seeding. The treatment lasted 7 days.
# as §3
# [2] = tested on: ABCG2 expression in non-cancer cells (CK8/18-); assay: Immunofluorescence assay of ABCG2 expression in patient-derived NSCLC cultures, non-cancer cells; details: sample TR65, chemotherapeutics, 7 days
# Protocol: as §5
# Upon arrival, the tissue was manually chopped with a surgical blade in a Petri dish under sterile conditions. The samples were cut into 3–5 mm pieces and further dissociated using the Tumor Dissociation Kit (Miltenyi Biotec, Bergisch Gladbach, Germany). The Tumor Dissociation Kit was used to dissociate the cells from the tumor tissue according to the manufacturer’s instructions. The samples were incubated in a 37 °C orbital shaker (KS 4000 ic control, IKA, Königswinter, Germany) at 300 rpm for 90 min. […]
# The immunofluorescence assay for the quantification of MDR markers was optimized to distinguish cancer cells from stromal cells using a cytokeratin 8/18 (CK8/18) antibody cocktail. […]
# [3] = tested on: ABCG2 expression in cancer cells (CK8/18+); assay: Immunofluorescence assay of ABCG2 expression in patient-derived NSCLC cultures; details: 7 days
# Protocol: as §5, §6, §7, §1, §8, §3
# NCI-H460 cells = assay: Cytotoxicity by immunofluorescence cell scoring (cell counts), NSCLC cell line; details: Homo sapiens, NCI-H460, 24 h, 24 h treatment
# Protocol: as §1, §2, §3, §4
compound,measurement,setting,value
"Nc1ccn([C@@H]2O[C@H](CO)[C@@H](O)C2(F)F)c(=O)n1 [Gemcitabine, gemcitabine]",IC50,MRC-5 cells; MRC-5 (co-culture with NCI-H460),> 100 µM
same,IC50,MRC-5 cells; MRC-5 (co-culture with NCI-H460/R),> 100 µM
same,IC50,MRC-5 cells; MRC-5 monoculture,> 100 µM
same,ABCC1 expression in CK8/18− cells,[1],elevated
same,ABCG2 expression in CK8/18− cells,[2],elevated
same,ABCG2 expression,"[3]; culture TR58, cancer cells (CK8/18+)","increase (An increase in ABCB1, ABCC1, or ABCG2 expression of at least 20% at a minimum of one concentration is shown in the table.)"
same,ABCG2 expression,"[3]; culture TR64, cancer cells (CK8/18+)","increase (An increase in ABCB1, ABCC1, or ABCG2 expression of at least 20% at a minimum of one concentration is shown in the table.)"
same,ABCG2 expression,"[3]; culture TR65, cancer cells (CK8/18+)","increase (An increase in ABCB1, ABCC1, or ABCG2 expression of at least 20% at a minimum of one concentration is shown in the table.)"
same,ABCG2 expression,"[3]; culture TR84, cancer cells (CK8/18+)","increase (An increase in ABCB1, ABCC1, or ABCG2 expression of at least 20% at a minimum of one concentration is shown in the table.)"
same,ABCG2 expression,"[3]; culture TR87, cancer cells (CK8/18+)","increase (An increase in ABCB1, ABCC1, or ABCG2 expression of at least 20% at a minimum of one concentration is shown in the table.)"
same,IC50,NCI-H460 cells; NCI-H460 (co-culture with MRC-5),34.6 µM
same,IC50,NCI-H460 cells; NCI-H460 monoculture,41.6 µM
